The source of these data is patent publication US10322131B2, “Hydroxyacid derivatives, a process for their preparation and pharmaceutical compositions containing them” (LES LABORATOIRES SERVIER, priority 2015, dated 2019).

The subject of assay [1] is H929 cells. The assay is described as follows: In vitro cytotoxicity (MTT) on H929 multiple myeloma tumour line. The note with it: Microculture Tetrazolium Assay. The assay is classed as cell-based. On the procedure: The cytotoxicity studies were carried out on the H929 multiple myeloma tumour line.
The cells are distributed onto microplates and exposed to the test compounds for 48 hours.
The cell viability is then quantified by a colorimetric assay, the Microculture Tetrazolium Assay (Cancer Res., 1987, 47, 939-942).

The target of assay [2] is Mcl-1 protein (Homo sapiens, UniProt Q07820). Put plainly: Inhibition of Mcl-1 by the fluorescence polarisation technique. The assay is classed as binding. An outline of the steps:
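Competitive FP displacement of fluorescein-labelled peptide ligand (1 nM final) from Mcl-1 (5 nM final) in HEPES 10 mM, 150 mM NaCl, 0.05% Tween 20, pH 7.4, 5% DMSO final. Read after ~2 h at r.t.; IC50 from 11-point 4-parameter logistic fit of % mP reduction.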
(In general: Fluorescence polarisation rises when a labelled molecule tumbles more slowly, as on binding a larger partner.)

[3] abbreviates: fluorescence polarisation test, Fluorescein labelled ligand 1 nM, Mcl-1 protein 5 nM, ~2 hours at r.t., read-out: IC50 (M) Mcl-1 FP.
Where [4] appears, read: Homo sapiens, NCI-H929, exposed 48 hours.

Molecules are shown by their SMILES. Read-outs that look alike come from different tables or passages of the source.

Mcl-1 protein, sequence (Q07820 whole entry): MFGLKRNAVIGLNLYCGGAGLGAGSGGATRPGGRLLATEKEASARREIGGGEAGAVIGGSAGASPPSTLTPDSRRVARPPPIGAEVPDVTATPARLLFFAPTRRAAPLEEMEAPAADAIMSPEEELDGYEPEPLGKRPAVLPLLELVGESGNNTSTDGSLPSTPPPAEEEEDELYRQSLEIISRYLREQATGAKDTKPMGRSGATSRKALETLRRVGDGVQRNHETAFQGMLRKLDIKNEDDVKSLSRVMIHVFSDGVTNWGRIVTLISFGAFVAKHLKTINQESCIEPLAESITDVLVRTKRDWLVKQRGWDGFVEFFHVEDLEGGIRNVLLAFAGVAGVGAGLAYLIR

As to `Cc1c(-c2c(-c3ccc(F)cc3)sc3ncnc(OC(Cc4ccccc4OCc4ccnc(-c5ccc(COC6OC(CO)C(O)C(O)C6O)cc5)n4)C(=O)O)c23)ccc(OCCN2CCN(C)CC2)c1Cl` [Example 23, (2R)-2-{[(5Sa)-5-{3-chloro-2-methyl-4-[2-(4-methylpiperazin-1-yl)ethoxy]phenyl}-6-(4-flurophenyl)thieno[2,3-d]pyrimidin-4-yl]oxy}-3-{2-[(2-{4-[(α-D-mannopyranosyloxy)methyl]phenyl}pyrimidin-4-yl)methoxy]phenyl}propanoic acid], the IC50 in assay [1] (exposed 48 hours) was found to be 39.7 nM; in assay [2] (setting [3]), 2.7e-09 M.
In the case of `Cc1c(-c2c(-c3ccc(F)cc3)sc3ncnc(OC(Cc4ccccc4OCc4ccnc(-c5ccc(CCO)cc5)n4)C(=O)O)c23)ccc(OCCN2CCN(C)CC2)c1Cl` [Example 24, (2R)-2-{[(5Sa)-5-{3-chloro-methyl-4-[2-(4methylpiperazin-1-yl)ethoxy]phenyl}-6-(4-fluorophenyl)thieno[2,3-d]pyrimidin-4-yl]oxy}-3-[2-({2-[4-(2-hydroxyethyl)phenyl]pyrimidin-4-yl}methoxy)phenyl]propanoic acid], the values for the IC50 in assay [1] (setting [4]) and in assay [2] (setting [3]) were 2.55 nM and 3.15e-09 M, respectively.
On the same counts, the results for `Cc1c(-c2c(-c3ccc(F)cc3)sc3ncnc(OC(Cc4ccccc4OCc4ccnc(-c5ccccc5OCC(O)CO)n4)C(=O)O)c23)ccc(OCCN2CCN(C)CC2)c1Cl` [Example 25, (2R)-2-{[(5Sa)-5-{3-chloro-2-methyl-4-[2-(4-methylpiperazin-1-yl)ethoxy]phenyl}-6-(4-fluorophenyl)thieno[2,3-d]pyrimidin-4-yl]oxy}-3-[2-({2-[2-(2,3-dihydroxypropoxy)phenyl]pyrimidin-4-}methoxy)phenyl]propanoic acid] are 10 nM and 3.45e-09 M.
The matching figures for `Cc1c(-c2c(-c3ccc(F)cc3)sc3ncnc(OC(Cc4ccccc4OCc4ccnc(-c5ccccc5OCCO)n4)C(=O)O)c23)ccc(OCCN2CCN(C)CC2)c1Cl` [Example 26, (2R)-2-{[(5Sa)-5-{3-chloro-2-methyl-4-[2-(4methylpiperazin-1-yl)ethoxy]phenyl}-6-(4-fluorophenyl)thieno[2,3-d]pyrimidin-4-yl]oxy}-3-[2-({2-[2-(2-hydroxyethoxy)phenyl]pyrimidin-4-yl}methoxy)phenyl]propanoic acid]: 1.72 nM and 3.45e-09 M.
The matching figures for `Cc1c(-c2c(-c3ccc(F)cc3)sc3ncnc(OC(Cc4ccccc4OCc4ccnc(-c5ccccc5COCC(O)CO)n4)C(=O)O)c23)ccc(OCCN2CCN(C)CC2)c1Cl` [Example 27, (2R)-2-{[(5Sa)-5-{3-chloro-2-methyl-4-[2-(4-methylpiperazin-1-yl)ethoxy]phenyl}-6-(4-fluorophenyl)thieno[2,3-d]pyrimidin-4-yl]oxy}-3-{2-[(2-{2-[(2,3-dihydroxypropoxy)methyl]phenyl}pyrimidin-4-yl)methoxy]phenyl}propanoic acid]: 13.9 nM and 2.2e-09 M.
`Cc1c(-c2c(-c3ccc(F)cc3)sc3ncnc(OC(Cc4ccccc4OCc4ccnc(-c5cccc(OP(=O)(O)O)c5)n4)C(=O)O)c23)ccc(OCCN2CCN(C)CC2)c1Cl` [Example 28, (2R)-2-{[(5Sa)-5-{3-chloro-2-methyl-4-[2-(4-methylpiperazin-1-yl)ethoxy]phenyl}-6-(4-fluorophenyl)thieno[2,3-d]pyrimidin-4-yl]oxy}-3-[2-({2-[3-(phosphonooxy)phenyl]pyrimidin-4-yl}methoxy)phenyl]propanoic acid]: the half-inhibitory concentration (IC50) came out at 48.4 nM in assay [1] (setting [4]) and 4.15e-09 M in assay [2].
In the case of `Cc1c(-c2c(-c3ccc(F)cc3)sc3ncnc(OC(Cc4ccccc4OCc4ccnc(-c5ccc(OP(=O)(O)O)cc5)n4)C(=O)O)c23)ccc(OCCN2CCN(C)CC2)c1Cl` [Example 29, 4-[4-({2-[(2R)-2-carboxy-2-{[(5Sa)-5-{3-chloro-2-methyl-4-[2-(4-methylpiperazin-1-yl)ethoxy]phenyl}-6-(4-fluorophenyl)thieno[2,3-d]pyrimidin-4-yl]oxy}ethyl]phenoxy}methyl)pyrimidin-2-yl]phenyl phosphate], the values for the 50% inhibitory concentration (IC50) in assay [1] (setting [4]) and in assay [2] were 22.7 nM and 4.6e-09 M, respectively.
`Cc1c(-c2c(-c3ccc(F)cc3)sc3ncnc(OC(Cc4ccccc4OCc4ccnc(-c5cccc(OCCO)c5)n4)C(=O)O)c23)ccc(OCCN2CCN(C)CC2)c1Cl` [Example 30, (2R)-2-{[(5Sa)-5-{3-chloro-2-methyl-4-[2-(4-methylpiperazin-1-yl)ethoxy]phenyl}-6-(4-fluorophenyl)thieno[2,3-d]pyrimidin-4-yl]oxy}-3-[2-({2-[3-(2-hydroxyethoxy)phenyl]pyrimidin-4-yl-}methoxy)phenyl]propanoic acid]: the IC50 in assay [1] (setting [4]) was found to be 3.6 nM; in assay [2] (setting [3]), 4.5e-09 M.
With `COCCOCCOc1ccc(-c2nccc(COc3ccccc3CC(Oc3ncnc4sc(-c5ccc(F)cc5)c(-c5ccc(OCCN6CCN(C)CC6)c(Cl)c5C)c34)C(=O)O)n2)cc1` [Example 31, (2R)-2-{[(5Sa)-5-{3-chloro-2-methyl-4-[2-(4-methylpiperazin-1-yl)ethoxy]phenyl}-6-(4-fluorophenyl)thieno[2,3-d]pyrimidin-4-yl]oxy}-3-{2-[(2-{4-[2-(2-methoxyethoxy)ethoxy]phenyl}pyrimidin-4-yl)methoxy]phenyl}propanoic acid], the results for the 50% inhibitory concentration (IC50) in assay [1] (setting [4]) and in assay [2] (setting [3]) were 1.68 nM and 3.85e-09 M, respectively.
With `Cc1c(-c2c(-c3ccc(F)cc3)sc3ncnc(OC(Cc4ccccc4OCc4ccnc(-c5ccc(OCCOCCO)cc5)n4)C(=O)O)c23)ccc(OCCN2CCN(C)CC2)c1Cl` [Example 32, (2R)-2-{[(5Sa)-5-{3-chloro-2-methyl-4-[2-(4-methylpiperazin-1-yl)ethoxy]phenyl}-6-(4-fluorophenl)thieno[2,3d]-pyrimidin-4-yl]oxy}-3-{2-[(2-{4-[2-(2-hydroxyethoxy)ethoxy]phenyl}pyrimidin-4-yl)methoxy]phenyl}propanoic acid], the IC50 is 1.68 nM in assay [1] (setting [4]) and 1.53e-08 M in assay [2] (setting [3]).
The matching figures for `COCCOCCOCCOc1ccc(-c2nccc(COc3ccccc3CC(Oc3ncnc4sc(-c5ccc(F)cc5)c(-c5ccc(OCCN6CCN(C)CC6)c(Cl)c5C)c34)C(=O)O)n2)cc1` [Example 33, (2R)-2-{[(5Sa)-5-{3-chloro-2-methyl-4-[2-(4-methylpiperazin-1-yl)ethoxy]phenyl}-6-(4-fluorophenyl)thieno[2,3-d]pyrimidin-4-yl]oxy}-3-(2-{[2-(4-{2-[2-(2-methoxyethoxy)ethoxy]ethoxy}phenyl)pyrimidin-4-yl]methoxy}phenyl)propanoic acid]: 1.18 nM and 2.24e-08 M.
For `Cc1c(-c2c(-c3ccc(F)cc3)sc3ncnc(O[C@H](Cc4ccccc4OCc4ccnc(-c5ccc(OCCN(C)C)cc5)n4)C(=O)O)c23)ccc(OCCN2CCN(C)CC2)c1Cl` [Example 34, (2R)-2-{[(5Sa)-5-{3-chloro-2-methyl-4-[2-(4-methylpiperazin-1-yl)ethoxy]phenyl}-6-(4-flurophenyl)thieno[2,3-d]pyrimidin-4-yl]oxy}-3-{2-[(2-{4-[2-(dimethylamino)ethoxy]phenyl}pyrimidin-4-yl)methoxy]phenyl}propanoic acid], the IC50 in assay [1] (exposed 48 hours) turned out to be 4.76 nM; in assay [2] (setting [3]), 7.1e-09 M.
In the case of `Cc1c(-c2c(-c3ccc(F)cc3)sc3ncnc(OC(Cc4ccccc4OCc4ccnc(-c5cccc(OCC6COC(C)(C)O6)c5)n4)C(=O)O)c23)ccc(OCCN2CCN(C)CC2)c1Cl` [Example 35, (2R) -2-{[(5Sa)-5-{3-chloro-2-methyl-4-[2-(4-methylpiperazin-1-yl)ethoxy]phenyl}-6-(4-fluorophenyl)thieno[2,3-d]pyrimidin-4-yl]oxy}-3-{2-[(2-{3-[(2,2-dimethyl-1,3-dioxolan-4-yl)methoxy]phenyl}pyrimidin-4-yl)methoxy]phenyl}propanoic acid], the results for the 50% inhibitory concentration (IC50) in assay [1] (setting [4]) and in assay [2] (setting [3]) were 4.76 nM and 5.15e-09 M, respectively.
In the case of `Cc1c(-c2c(-c3ccc(F)cc3)sc3ncnc(OC(Cc4ccccc4OCc4ccnc(-c5cccc(COC(=O)NCCOCCOCCOCCO)c5)n4)C(=O)O)c23)ccc(OCCN2CCN(C)CC2)c1Cl` [Example 36, (2R)-2-{[(5Sa)-5-{3-chloro-2-methyl-4-[2-(4-methylpiperazin-1-yl)ethoxy]phenyl}-6-(4-fluorophenyl)thieno[2,3-d]pyrimidin-4-yl]oxy}-3-[2-({2-[3-(15-hydroxy-3-oxo-2,7,10,13-tetraoxa-4-azapentadec-1-yl)phenyl]pyrimidin-4-yl}methoxy)phenyl]propanoic acid], the concentration for half-maximal inhibition (IC50) amounted to 75.9 nM in assay [1] (setting [4]) and 4.65e-09 M in assay [2] (setting [3]).
For the compound `Cc1c(-c2c(-c3ccc(F)cc3)sc3ncnc(OC(Cc4ccccc4OCc4ccnc(-c5cccc(COC(=O)N6CCC(N7CCCCC7)CC6)c5)n4)C(=O)O)c23)ccc(OCCN2CCN(C)CC2)c1Cl` [Example 37, (2R)-3-(2-{[2-(3-{[(1,4′-bipiperidin-1′-ylcarbonyl)oxy]methyl}phenyl)pyrimidin-4-yl]methoxy}phenyl)-2-{[(5Sa)-5-{3-chloro-2-methyl-4-[2-(4-methylpiperazin-1-yl)ethoxy]phenyl}-6-(4-fluorophenyl)thieno[2,3-d]pyrimidin-4-yl]oxy}propanoic acid], the 50% inhibitory concentration (IC50) came to 20.5 nM in assay [1] (setting [4]) and 6.3e-09 M in assay [2] (setting [3]).
For the compound `Cc1c(-c2c(-c3ccc(F)cc3)sc3ncnc(OC(Cc4ccccc4OCc4ccnc(-c5cccc(OCCOCCOCCO)c5)n4)C(=O)O)c23)ccc(OCCN2CCN(C)CC2)c1Cl` [Example 38, (2R)-2-{[(5Sa)-5-{3-chloro-2-methyl-4-[2-(4-methylpiperazin-1-yl)ethoxy]phenyl}-6-(4-fluorophenyl)thieno[2,3-d]pyrimidin-4-yl]oxy}-3-(2-{[2-(3-{2-[2-(2-hydroxyethoxy)ethoxy]ethoxy}phenyl)pyrimidin-4-yl]methoxy}phenyl)propanoic acid], the half-maximal inhibitory concentration (IC50) in assay [1] (setting [4]) worked out at 2.76 nM; in assay [2] (setting [3]) it was 2.8e-09 M.

In general, IC50 refers to the concentration needed to halve the response being measured.
